Test results taken from ChEMBL document CHEMBL1833889, “Ursolic acid is a PPAR-α agonist that regulates hepatic lipid metabolism” (Bioorg Med Chem Lett, 2011).
Each block holds one molecule with its values, some of them ahead of it. The source made the active and inactive calls. The calls are words filed in the database; no cut-off is given here.

Key:
[1] = target: T1, Peroxisome proliferator-activated receptor alpha (Homo sapiens, UniProt Q07869); assay: (§1) Binding affinity to histidine-tagged human PPARalpha-LBD assessed as recruitment of co-activator peptide fluorescein-labeled PGC1alpha after 2 hrs by TR-FRET assay
T1 sequence (Q07869 whole entry): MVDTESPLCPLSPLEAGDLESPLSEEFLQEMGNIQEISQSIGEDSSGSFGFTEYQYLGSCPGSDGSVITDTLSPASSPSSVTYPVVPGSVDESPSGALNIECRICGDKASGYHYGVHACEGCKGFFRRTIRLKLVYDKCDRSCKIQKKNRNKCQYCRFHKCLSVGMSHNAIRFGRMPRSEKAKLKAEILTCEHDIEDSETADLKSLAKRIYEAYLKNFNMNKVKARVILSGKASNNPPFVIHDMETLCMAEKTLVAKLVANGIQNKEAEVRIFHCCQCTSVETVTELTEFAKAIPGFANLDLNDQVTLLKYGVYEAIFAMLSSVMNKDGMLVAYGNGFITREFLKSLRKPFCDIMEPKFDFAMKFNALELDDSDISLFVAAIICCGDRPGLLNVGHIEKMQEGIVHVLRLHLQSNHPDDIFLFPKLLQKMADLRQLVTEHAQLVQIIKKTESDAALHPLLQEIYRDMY

[2] = target: T2, Peroxisome proliferator-activated receptor alpha (Homo sapiens) (UniProt Q07869); assay: as §1
T2 sequence (whole entry): T1 sequence (Q07869 whole entry)

HepG2 [3] = assay: Induction of BODIPY-labeled 4,4-difluoro-5-methyl-4-bora-3a,4a-diaza-s-indacene-3-dodecanoic acid uptake in human HepG2 cells after 1 min by FACS analysis; assay type: functional, cell-based
[4] = target: T2, Peroxisome proliferator-activated receptor alpha (Homo sapiens); assay: Binding affinity to histidine-tagged human PPARalpha-LBD by SPR analysis
[5] = target: T2, Peroxisome proliferator-activated receptor alpha (Homo sapiens); assay: Agonist activity at PPARalpha in human HepG2 cells assessed as up-regulation of FATP4 mRNA expression at 80 uM by quantitative PCR analysis; assay type: functional, cell-based
[6] = target: T1, Peroxisome proliferator-activated receptor alpha; assay: (§2) Agonist activity at human recombinant PPARalpha expressed in HepG2 cells co-transfected with pGL3-PPRE3-TK-luc reporter assessed as […] after 24 hrs by luciferase based transactivation assay; assay type: functional, cell-based
[7] = target: T2, Peroxisome proliferator-activated receptor alpha (Homo sapiens); assay: as §2; assay type: functional, cell-based
[8] = target: T2, Peroxisome proliferator-activated receptor alpha (Homo sapiens); assay: Agonist activity at human recombinant PPARalpha expressed in HepG2 cells assessed as binding of activated PPARalpha to the PPRE at 20 uM by ELISA-based assay; assay type: cell-based
HepG2 [9] = assay: Hypolipidemic activity in human HepG2 cells assessed as decrease in cholesterol level at 80 uM by fluorescence-based method relative to control; assay type: functional; design: scale not given: the % may be the effect or the level left
HepG2 [10] = assay: Hypolipidemic activity in human HepG2 cells assessed as decrease in cholesterol level at 20 uM by fluorescence-based method relative to control; assay type: functional; design: scale not given: the % may be the effect or the level left
[11] = target: T2, Peroxisome proliferator-activated receptor alpha (Homo sapiens); assay: Agonist activity at PPARalpha in human HepG2 cells assessed as up-regulation of carnitine palmitoyl transferase mRNA expression at 80 uM by quantitative PCR analysis relative to control; assay type: functional, cell-based
[12] = target: T2, Peroxisome proliferator-activated receptor alpha (Homo sapiens); assay: Agonist activity at PPARalpha in human HepG2 cells assessed as effect on LPL mRNA expression at 5 to 80 uM by quantitative PCR analysis; assay type: functional, cell-based
[13] = target: T2, Peroxisome proliferator-activated receptor alpha (Homo sapiens); assay: Agonist activity at PPARalpha in human HepG2 cells assessed as up-regulation of PPARalpha mRNA expression at 5 uM by quantitative PCR analysis; assay type: functional, cell-based
[14] = target: T2, Peroxisome proliferator-activated receptor alpha (Homo sapiens); assay: Agonist activity at PPARalpha in human HepG2 cells assessed as up-regulation of acyl-CoA synthetase mRNA expression at 5 to 80 uM by quantitative PCR analysis; assay type: functional, cell-based
[15] = target: T2, Peroxisome proliferator-activated receptor alpha (Homo sapiens); assay: Agonist activity at human recombinant PPARalpha expressed in HepG2 cells co-transfected with pGL3-PPRE3-TK-luc reporter assessed as […] at 80 uM after 24 hrs by luciferase based transactivation assay; assay type: functional, cell-based
[16] = target: T2, Peroxisome proliferator-activated receptor alpha (Homo sapiens); assay: Agonist activity at PPARalpha in human HepG2 cells assessed as up-regulation of FATP4 mRNA expression at 20 uM by quantitative PCR analysis; assay type: functional, cell-based
[17] = target: T2, Peroxisome proliferator-activated receptor alpha (Homo sapiens); assay: Agonist activity at PPARalpha in human HepG2 cells assessed as down-regulation of FAS mRNA expression at 80 uM by quantitative PCR analysis; assay type: functional, cell-based
HepG2 [18] = assay: Hypolipidemic activity in human HepG2 cells assessed as decrease in triglyceride level at 80 uM relative to control; assay type: functional; design: scale not given: the % may be the effect or the level left
[19] = target: T2, Peroxisome proliferator-activated receptor alpha (Homo sapiens); assay: Agonist activity at PPARalpha in human HepG2 cells assessed as up-regulation of PPARalpha mRNA expression at 20 uM by quantitative PCR analysis; assay type: functional, cell-based
HepG2 [20] = assay: Hypolipidemic activity in human HepG2 cells assessed as decrease in triglyceride level at 5 uM relative to control; assay type: functional; design: scale not given: the % may be the effect or the level left
[21] = target: T2, Peroxisome proliferator-activated receptor alpha (Homo sapiens); assay: Agonist activity at PPARalpha in human HepG2 cells assessed as down-regulation of SREBP1c mRNA expression at 80 uM by quantitative PCR analysis; assay type: functional, cell-based
[22] = target: T2, Peroxisome proliferator-activated receptor alpha (Homo sapiens); assay: Agonist activity at PPARalpha in human HepG2 cells assessed as up-regulation of ACOX mRNA level at 80 uM by quantitative PCR analysis; assay type: functional, cell-based
[23] = target: T2, Peroxisome proliferator-activated receptor alpha (Homo sapiens); assay: Agonist activity at PPARalpha in human HepG2 cells assessed as down-regulation of SCD1 mRNA expression at 80 uM by quantitative PCR analysis; assay type: functional, cell-based
HepG2 [24] = assay: Hypolipidemic activity in human HepG2 cells assessed as decrease in triglyceride level at 20 uM relative to control; assay type: functional; design: scale not given: the % may be the effect or the level left
HepG2 [25] = assay: Hypolipidemic activity in human HepG2 cells assessed as decrease in cholesterol level at 5 uM by fluorescence-based method relative to control; assay type: functional; design: scale not given: the % may be the effect or the level left
[26] = target: T2, Peroxisome proliferator-activated receptor alpha (Homo sapiens); assay: Agonist activity at PPARalpha in human HepG2 cells assessed as up-regulation of PPARalpha mRNA expression at 80 uM by quantitative PCR analysis; assay type: functional, cell-based
HepG2 [27] = assay: Induction of BODIPY-labeled 4,4-difluoro-5-methyl-4-bora-3a,4a-diaza-s-indacene-3-dodecanoic acid uptake in human HepG2 cells at 80 uM after 1 min by FACS analysis; assay type: functional

EC50 [1]: 4.5 µM
Activity [2]: Dose-dependent effect
Activity [4]: Active
SMILES: CC(C)(Oc1ccc(C(=O)c2ccc(Cl)cc2)cc1)C(=O)O [FENOFIBRIC ACID]
Activity (HepG2 [3]): Dose-dependent effect

Activity [5]: 259%
Activity [2]: inactive
EC50 [6]: 41.3 µM
Activity [7]: Dose-dependent effect
Activity [8]: 46%
Activity [11]: 1020%
Activity [12]: inactive
Activity [13]: 134%
Activity [14]: Active
Activity [15]: 214%
Activity [16]: 185%
Activity [17]: 23%
Activity [19]: 156%
Activity [21]: 28%
Activity [22]: 24%
Activity [4]: inactive
Activity [23]: 15%
Activity [26]: 195%
SMILES: C[C@H]1[C@H](C)CC[C@]2(C(=O)O)CC[C@]3(C)C(=CC[C@@H]4[C@@]5(C)CC[C@H](O)C(C)(C)[C@@H]5CC[C@]43C)[C@H]12 [URSOLIC ACID]
Activity (HepG2 [9]): 26.5%
Activity (HepG2 [10]): 18.9%
Activity (HepG2 [18]): 44.7%
Activity (HepG2 [20]): 23.5%
Activity (HepG2 [24]): 38.8%
Activity (HepG2 [25]): 11%
Activity (HepG2 [27]): 108.7%
